Results taken from the METLIN SMRT retention time set (Domingo-Almenara et al. 2019).

Test: gradient 5% acetonitrile 3 min, to 50% in 2 min, to 85% in 15 min, held 3 min, 100 µL/min
Conditions: column: Zorbax Extend-C18 2.1 x 50 mm; eluents: water / acetonitrile, 0.1% formic acid
Method in brief: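 Data were gathered over 3 months by HPLC coupled to a quadrupole time-of-flight mass spectrometer, operated in positive and negative ionization mode. Mixtures of ~100 pure standards ran on a Zorbax Extend-C18 column (2.1 × 50 mm, 1.8 μm) at 100 μL/min, with water and acetonitrile each containing 0.1% formic acid and dead and dwell volumes of 40 μL and 900 μL. Retention time was read from adduct peaks picked by computer and checked manually.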

Work on `COc1ccc(CN2C(=O)[C@H](OC)[C@@H]2C2=CCN(C(=O)C3(c4ccccc4)CC3)CC2)cc1` yielded an RP-LC retention time of 870 s.

In the case of `O=C(c1ccccc1Cl)N1CCC(COCc2ccccc2)CC1`, the RP-LC retention time is reported as 979 s.

`CCOc1ccc(S(=O)(=O)Nc2ccc(-c3cn4ccc(C)nc4n3)cc2)c(OCC)c1` gave an RP-LC retention time of 691 s.

`CCn1c(C(=O)NCCCN2CCCC(C)C2)c(N2CCCC2=O)c2cc(OC)ccc21` (stereo not drawn) gave an RP-LC retention time of 666 s.

Work on `Cc1cc(C)n(-c2ccnc(N3CCC(C(=O)N4CCc5ccccc5C4)CC3)n2)n1` yielded an RP-LC retention time of 935 s.

`CCN(CC)CCCNC(=O)C(C)n1c(=O)c(C(F)(F)F)nc2ccccc21` (stereo not drawn) showed an RP-LC retention time of 664 s.

Compound `O=C(NCCCN1CCCC1)c1nnc(-c2ccc(S(=O)(=O)N3CCCC3)cc2)o1` has an RP-LC retention time of 603 s.

With `CCc1ccccc1NC(=O)CSc1nnc2c3cc(-c4ccc(C)cc4)nn3ccn12` the RP-LC retention time was 989 s.

`COc1ccccc1CNC(=O)CSc1ccc(-c2cccnc2)nn1` showed an RP-LC retention time of 592 s.

For `O=[N+]([O-])c1ccc(CNc2nc(NCc3cccc(C(F)(F)F)c3)nc3nc[nH]c23)cc1`, the RP-LC retention time was 790 s.

Compound `Cc1cccc(CNC(=O)CC2CCN(C(=O)c3[nH]c(C)c(C(=O)OC(C)C)c3C)CC2)c1` has an RP-LC retention time of 880 s.

With `Cc1[nH]nc(-c2c(C)sc(C)c2S(=O)(=O)NCC(C)c2ccccc2)c1C` (stereo not drawn) the RP-LC retention time was 1090 s.

For `CC(C)C(=O)Nc1cccn2nc(C3CCC3)nc12`, the RP-LC retention time was 802 s.

`Cn1nc(-c2nnc(-c3ccccc3)o2)c2c1CCN(S(=O)(=O)c1cccc3cccnc13)C2` showed an RP-LC retention time of 857 s.

For `Cc1nc(-c2noc(-c3ccccc3)n2)cn1CC(=O)Nc1ccc(F)c(Cl)c1`, the RP-LC retention time was 917 s.

Compound `CCN1CCN(Cc2ccc(NC3=NS(=O)(=O)C(c4ccc(OC)cc4)=C3C)cc2)CC1` has an RP-LC retention time of 622 s.

Compound `O=C(NCc1cc(F)cc(F)c1)c1ccc(NC(=O)C2CCC2)cc1N1CCOCC1` has an RP-LC retention time of 871 s.

`Cn1c(=O)cc(N2CCC[C@@H](N)C2)n(Cc2ccccc2C#N)c1=O` gave an RP-LC retention time of 641 s.

In the case of `CSc1ccccc1NC(=O)c1cnc2ccc(C)cn2c1=O`, the RP-LC retention time is reported as 806 s.

For `CN(C)CCn1cc(C(=O)NCc2ccco2)ccc1=O`, the RP-LC retention time was 590 s.

For `CC(C)Sc1ccc(CC(=O)NCC2CCN(C(=O)c3ccccc3F)CC2)cc1`, the RP-LC retention time was 833 s.

`CC(NC(=O)CN1CN(c2ccccc2)C2(CCN(C(=O)CC(C)(C)C)CC2)C1=O)c1ccccc1` (stereo not drawn) gave an RP-LC retention time of 931 s.

Work on `CC1(C)CC(O)CC(C)(C)N1[O-]` yielded an RP-LC retention time of 578 s.

Work on `O=C(Nc1cccc(Br)c1)C1CCCN(c2ncc(-c3ccccc3)cn2)C1` (stereo not drawn) yielded an RP-LC retention time of 1250 s.

With `Cn1c(=O)c(N2CCN(C(=O)c3cccc(F)c3)CC2)nc2ccccc21` the RP-LC retention time was 864 s.

With `Cc1ccc(-c2ccc3nn(Cc4cccc(Br)c4)c(=O)n3n2)cc1C` the RP-LC retention time was 1010 s.

`CNC(=O)N1CCc2ccc(C(=O)NC(C)C)cc21` gave an RP-LC retention time of 625 s.

For `CCOc1ccc(NC(=O)C2CCN(c3cc(Oc4ccc(CC)cc4)ncn3)CC2)cc1`, the RP-LC retention time was 1080 s.

`COCc1nn(C)c2c1CN(S(=O)(=O)c1cccc(C#N)c1)CC2` gave an RP-LC retention time of 676 s.

Work on `Cc1nc(-c2ccc(-c3noc(CNC(=O)c4ccco4)n3)cc2)cs1` yielded an RP-LC retention time of 837 s.

Work on `CCCCOc1ccc(-c2cc3c4nnc(CCC(=O)N5CCN(CC)CC5)n4ccn3n2)cc1` yielded an RP-LC retention time of 680 s.

`Cc1cc(C)n(CC(=O)NCCc2c[nH]c3ccccc23)c(=O)n1` gave an RP-LC retention time of 570 s.

`CS(=O)(=O)N1CCCC(C(=O)Nc2ccc3c(c2)C(=O)NC3=O)C1` (stereo not drawn) showed an RP-LC retention time of 612 s.

Compound `O=C(NCc1ccc(F)cc1)N1CCN(c2nc3cccnc3n(Cc3ccccc3)c2=O)CC1` has an RP-LC retention time of 1020 s.

Work on `CCN(Cc1ccccc1)C(=O)c1ncn2c1C(=O)N(C1CC1)C(C)(C(=O)NCc1ccccc1)C2` (stereo not drawn) yielded an RP-LC retention time of 742 s.

Compound `CCN1CCn2cc(S(=O)(=O)Nc3ccc(F)cc3Cl)cc2C1=O` has an RP-LC retention time of 736 s.

`O=C(NC1CC1)c1ccc2c(c1)CCN2C(=O)C1CCCC1` showed an RP-LC retention time of 948 s.

With `O=C(CCCS(=O)(=O)Cc1ccccc1)Nc1ccc2c(c1)OCCO2` the RP-LC retention time was 700 s.

In the case of `CCc1nnc2c(=O)n(CC(=O)NCc3ccccc3)c3cccnc3n12`, the RP-LC retention time is reported as 688 s.

Work on `N#Cc1nc(-c2ccc(COc3ccc(Cl)cc3)o2)oc1NCCCn1ccnc1` yielded an RP-LC retention time of 627 s.

Work on `O=S(=O)(c1cc(-c2ccno2)cs1)N1CCN(c2ncccn2)CC1` yielded an RP-LC retention time of 843 s.

`CCOCc1cc(OC)c(-c2ccc(C[C@H](NC(=O)c3c(F)cccc3F)C(=O)O)cc2)c(OC)c1` showed an RP-LC retention time of 1020 s.

In the case of `O=C(Cc1ccc(F)cc1)N1CCN(c2nc(CN3CCOCC3)cs2)CC1`, the RP-LC retention time is reported as 616 s.

For `CC(C)(C[C@@](O)(Cc1cc2ccncc2[nH]1)C(F)(F)F)c1cc(F)ccc1O`, the RP-LC retention time was 790 s.

Compound `CSc1ccc(CNC(=O)Cc2nnc(-c3cccc(F)c3)o2)cc1` has an RP-LC retention time of 794 s.

For `Cc1ccc2oc(CN3CCN(C(=O)Nc4ccccc4)CC3)nc2c1`, the RP-LC retention time was 678 s.

With `CCOCCCNC(=O)Cn1c(=O)c2cccn2c2ccc(F)cc21` the RP-LC retention time was 712 s.

With `Cc1ccc(S(=O)(=O)N2CC3CN(C(=O)COc4cccc(C)c4)CC(C2)O3)cc1` the RP-LC retention time was 928 s.

`COC(=O)c1ncn2c1C(=O)N(Cc1ccccc1F)C(C)(C(=O)NCc1ccc(C)cc1)C2` (stereo not drawn) gave an RP-LC retention time of 772 s.

`Cc1cc(OCC(=O)Nc2ccnn2Cc2cccs2)ccc1Cl` showed an RP-LC retention time of 913 s.

`NC(=O)C1CCN(C(=O)c2cc3cccnc3n(Cc3ccccc3F)c2=O)CC1` showed an RP-LC retention time of 666 s.

For `CCN1C(=O)C2(CCN(C(=O)c3cn(C)cn3)CC2)c2ccccc21`, the RP-LC retention time was 630 s.

Compound `COc1ccc(-c2cn3cccnc3n2)cc1NC(=O)c1ccccc1F` has an RP-LC retention time of 706 s.

In the case of `Cn1ccc2cc(S(=O)(=O)N3CCC(C(=O)N4CCN(c5ccccn5)CC4)CC3)ccc21`, the RP-LC retention time is reported as 648 s.

Work on `COc1ccc(-c2nc3cc(C)ccn3c2NC(=O)c2ccc(OC)cc2OC)cc1` yielded an RP-LC retention time of 706 s.

`CCCCN1C(=O)C(C)(C(=O)N2CCN(c3cccc(C)c3C)CC2)Oc2cccnc21` (stereo not drawn) gave an RP-LC retention time of 1380 s.

For `Cn1nc2c(c1NC(=O)c1ccc([N+](=O)[O-])s1)CCC2`, the RP-LC retention time was 698 s.

In the case of `CC(C(=O)NC1CCN(Cc2ccccc2)CC1)n1c(=O)c(C(F)(F)F)nc2ccccc21` (stereo not drawn), the RP-LC retention time is reported as 731 s.

In the case of `Cc1cc(NC(=O)C2CCCN(c3nnc4ccccn34)C2)ccc1F` (stereo not drawn), the RP-LC retention time is reported as 717 s.

In the case of `Cc1ccc(-c2cn3c(CC(=O)Nc4ccc(Cl)cc4)csc3n2)cc1C`, the RP-LC retention time is reported as 940 s.

`C[C@H]1CN(C(=O)Nc2cccc(Cl)c2)C[C@@H]1c1nc(-c2cccnc2)no1` showed an RP-LC retention time of 849 s.

With `COCCCNC(=O)C1c2ccccc2C(=O)N(C)C1c1ccc(OC)c(OC)c1` (stereo not drawn) the RP-LC retention time was 666 s.

In the case of `CCCS(=O)(=O)N1CC(=O)N(c2ccc(F)cc2)C(C)(C(=O)NC2CCCCCC2)C1` (stereo not drawn), the RP-LC retention time is reported as 938 s.

With `CCc1nnc2ccc(-c3noc(CNC(=O)c4ccccc4)n3)cn12` the RP-LC retention time was 651 s.

For `Cc1cc2c(cc1S(=O)(=O)N1CCCC1C(=O)Nc1cccc(Cl)c1C)OC(C)C(=O)N2` (stereo not drawn), the RP-LC retention time was 891 s.

Work on `O=C(Nc1ccc2c(c1)C(=O)Nc1ccccc1O2)Oc1ccccc1` yielded an RP-LC retention time of 813 s.

`COc1cccc(-c2cc(C(N)=O)n(C)n2)c1` gave an RP-LC retention time of 646 s.

Work on `Cc1nnc(-c2cc(C)n(CC(=O)Nc3cccc(Cl)c3)c2C)o1` yielded an RP-LC retention time of 805 s.

Compound `CCc1ccc(CNC(=O)C2=C3CCCN3c3ccc(F)cc3S2(=O)=O)cc1` has an RP-LC retention time of 996 s.

With `CC1(CNC(=O)c2ccc(Br)cc2)CCOCC1` the RP-LC retention time was 784 s.

In the case of `Cc1nccn1C1CN(C(=O)Nc2ccccc2)C1`, the RP-LC retention time is reported as 568 s.

Compound `COc1ccccc1-c1noc(Cn2ccn3nc(-c4ccc(Cl)cc4)cc3c2=O)n1` has an RP-LC retention time of 1040 s.

For `COc1ccc(C2C=C(c3ccc4c(c3)OCO4)Oc3c2c(=O)oc2ccccc32)cc1OC` (stereo not drawn), the RP-LC retention time was 1090 s.

For `COc1ccc(-c2noc(C3CCCN3C(=O)c3cccs3)n2)cc1` (stereo not drawn), the RP-LC retention time was 924 s.

`O=C(NCc1ccc(F)cc1)C1CCN(c2nnc3c(Cl)cccn23)CC1` showed an RP-LC retention time of 645 s.

For `CN1C(=O)C2(CCN(C(=O)Nc3ccccc3)C2)c2ccccc21` (stereo not drawn), the RP-LC retention time was 764 s.

Work on `CCOCC(=O)N1CCCN(C2=NS(=O)(=O)C(c3ccc(Cl)cc3)=C2C)CC1` yielded an RP-LC retention time of 761 s.

`COc1cccc(N2CCN(C(=O)Cn3ccc4c(SCc5ccccc5)nccc43)CC2)c1` gave an RP-LC retention time of 775 s.

`CCCCNC(=O)C1CCN(c2nc3ccc(-c4cccnc4)nc3s2)CC1` showed an RP-LC retention time of 588 s.

With `COc1ccc(CCN2C(=O)C(NC(C)=O)(C(F)(F)F)C3=C2CC(C)(C)CC3=O)cc1OC` (stereo not drawn) the RP-LC retention time was 760 s.

Compound `Cc1ccnc(N2CCC(C(=O)N3CCC(C(N)=O)(N4CCCCC4)CC3)CC2)n1` has an RP-LC retention time of 547 s.

For `CCCCOCCCNCc1ccc2c(c1)n(C)c(=O)n2C`, the RP-LC retention time was 593 s.

In the case of `CC(=O)Nc1ccc(N2CCN(C3CCCCC3)CC2)cc1C(=O)O`, the RP-LC retention time is reported as 588 s.

Compound `Cn1nccc1C(=O)Nc1c(-c2cccc(F)c2)nc2sc(N3CCCCC3)nn12` has an RP-LC retention time of 882 s.

For `COCCNC(=O)c1csc(N2CCN(c3ccc(F)cc3)CC2)n1`, the RP-LC retention time was 869 s.

`O=C1NC2(CCN(C(=O)Nc3ccc4c(c3)OCO4)CC2)Nc2c(Cl)cccc21` gave an RP-LC retention time of 682 s.

`CCc1cc(C(=O)Nc2ccc(C#N)cc2)nc2cc(-c3ccco3)nn12` gave an RP-LC retention time of 1130 s.

`Cc1ccc(C)c(C(=O)Nc2ccc3c(c2)Sc2ncccc2C(=O)N3C)c1` gave an RP-LC retention time of 888 s.
